Data on 34 compounds can be found in a melting point compilation (Tetko et al.; mined from patent text by program, amines drawn as free bases though some values may be those of a salt).

With `C[C@H](NC(=O)C1(C)Oc2cc([N+](=O)[O-])ccc2NC1=O)C(=O)N[C@H](CCC(=O)O)C(=O)O` (some centres undefined), the melting point lay in the range of 132 to 135 °C. Next, `CCCCCCc1ccc(C(=O)O)cc1[N+](=O)[O-]`: 106 to 108 °C. With `CCCCCCCCCCCCC(C(=O)O)C(O)(CC(=O)O)C(=O)O` (centres undefined) the figure was 75.4 to 76.1 °C; with `COc1cccc(OC)c1C(=O)NC(=O)Nc1ccc(-c2ccc(Cl)cc2)cn1`, 205 to 215 °C; with `COc1ccc(-c2c(Cl)c(CN3C(=O)CCC3=O)nc3sc4c(c23)CC/C(=N/O)C4)cc1`, 248 to 249 °C. The compound `O=C(Nc1c(C(O)(C(F)(F)F)C(F)(F)F)ccc2ccccc12)c1ccccc1Cl` returned a melting point of 209 to 211 °C. Next, `CC1=C(N2CC2)C(=O)c2c([nH]c(CO)c2C)C1=O`: 224 to 225 °C; `CN1CCN(Cc2ccc(NC(=O)c3ccc(Cl)c(C#Cc4ccc(NC5CC5)nn4)c3)cc2C(F)(F)F)CC1`: 133 to 134 °C; `CN(C)C(=O)ON=C1n2ccnc2SC1(C)C`: 99 to 102 °C. The compound `Cc1cc2c(cc1-n1cccc1)OC(=O)C2C` (centres undefined) showed a melting point of 61 to 63 °C. Next, `CNc1c(OC)cc(C(O)CS(C)(=O)=O)cc1OC` (centres undefined): 141 to 142 °C. The compound `CC(C)CC(NC(=O)C(Cc1ccccc1)NC(=O)C1CCCCC1C(=O)O)C(=O)O` (centres undefined) displayed a melting point of 84 to 122 °C.

Compound `CCOC(=O)CC(O)CC(O)C=CC(=C(c1ccc(F)cc1)c1ccc(F)cc1)n1nnnc1-c1ccccc1` (centres undefined) came in with a melting point of 160 to 162 °C.

`C#CCN1C(=O)C(C)(C)NC(C)(C)C1=O` returned a melting point of 77 to 80 °C. Next, `CCn1nc(C)c2c(Cl)c(CCl)cnc21`: 96 to 97 °C; `O=S1(=O)NC=Nc2c(Br)cc(Br)cc21`: 289 to 292 °C. In turn, `CCOC(=O)C(=O)Nc1ccc(NC(=O)C(=O)OCC)nc1` gave a melting point of 178 to 180 °C. Next, `CCOC(=O)COc1cc(-n2nc(C)c(Cl)c2C)c(F)cc1Cl`: 101 to 104 °C; `O=C(c1cccnc1)N1N=CCC1c1ccco1` (centres undefined): 91 to 93 °C.

`CN(C)c1cc(-c2c[nH]c(N)n2)ccn1` showed a melting point above 270 °C. Next, `Cn1nc(-c2ccccc2F)nc1-c1ccccc1C(F)(F)F`: 104 to 107 °C. With `O=C1N(c2ccccc2)c2ccccc2C1(Cc1ccccn1)Cc1ccccn1` the figure was 107 to 111 °C.

Regarding `COc1cccc(CN2Cc3cc(OC)c(O)cc3C(O)C2)c1` (centres undefined), the melting point is 137 to 138 °C.

`CCOC(=O)C(C)c1ccc(-c2cn3cccnc3n2)cc1` (centres undefined) displayed a melting point of 171 to 173 °C. In turn, `CC(C)(C)n1ncc(OCc2ccc(OCc3ccc(F)cc3)nc2)c(Cl)c1=O` registered a melting point of 121 to 124 °C. On to `CN(C)CNS(=O)(=O)c1ccc(-c2cnn(Cc3c(F)c(F)c(F)c(F)c3F)c(=O)c2-c2ccc(F)cc2)cc1`, for which the melting point was in the range of 194 to 196 °C.

For `COc1cc(-n2c(C#N)c(C#N)n(C(F)F)c2=O)c(F)cc1Br`, the melting point amounted to 150 °C. `CCCCCCCCCCCCCCCc1cccc(OCC#CC(=O)C(F)(F)F)c1` showed a melting point of 35 to 36 °C.

As for `Cn1ncnc1-c1ccc(C(=O)N2Cc3cccn3Cc3ccccc32)cc1`, the melting point lay within 155 to 158 °C. With `O=C(O)[C@H]1C=C[C@H](c2ccccc2)n2c(=O)n(CCCl)c(=O)n21` (relative stereo) the figure was 141 to 143 °C; with `COc1ccc(-c2cc(-c3ccccc3)c(-c3ccccc3)s2)cc1`, 124 to 126 °C; with `COc1ccc2ccccc2c1-c1c(C)c2c(c(C)c1P(c1ccccc1)c1ccccc1)COC2`, 159 °C. With `COC(=O)C(NCC(=O)c1ccccc1)C(C)C` (racemic) the figure was 32.5 to 50.8 °C; with `CCOC(=O)CCCc1cn(C(c2ccccc2)(c2ccccc2)c2ccccc2)cn1`, 134 °C.
